Test results as given in patent US12534457B2, “Heteroaryl derivative compounds, and uses thereof” (Voronoi Inc., priority 2021, dated 2026).

tested on: Ba/F3 cells expressing EGFR Del19/C797S (EGFR DC); assay: Proliferation inhibitory activity, Ba/F3 cells expressing EGFR Del19/C797S (CellTiter-Glo); assay type: cell-based; settings: Mus musculus, BaF3, 72 hours of compound treatment
Protocol: The following experiments were performed to evaluate the inhibitory activity of the compounds according to the present disclosure on Ba/F3 proliferation expressing EGFR C797S, L861Q, G719A, S768I, L718Q, and/or G724S mutations.
For Ba/F3 cells, RPMI-1640 containing 10% FBS and 5 ng/ml IL-3 (R&D Systems) was used. Transduced Ba/F3 cells were cultured after adding 1 μg/ml puromycin (Invitrogen) to the same medium.
At 24 hours before treatment with the compounds, 3000 to 5000 cells were aliquoted into each well of a white clear bottom 96 well plate (Corning). The compounds were diluted in dimethyl sulfoxide (3 times dilution, 12 concentrations in total), and injected in an amount of 1 μl so that the final concentration was 0.2 nM to 5 uM. For measurement of living cells, after 72 hours of compound treatment, the cells were stored at room temperature for 10 min using CellTiter-Glo luminescentcell-viability reagent (Promega), and then luminescence intensity was measured using a reader (SynergyNeo, Biotek). Each test was repeated three times. Result values were calculated as the cell growth rate (%) compared to the control. The graphs were created using GraphPad Prism version 8.3.0 program and the GI50 values were calculated.

SMILES	GI50 [µM]
CN1CCN(c2ccc(Nc3cc(N4Oc5ccccc5C4c4ccccc4)ncn3)cc2)CC1 (stereo not shown) [Example 229, N-(4-(4-methylpiperazin-1-yl)phenyl)-6-(3-phenylbenzo[d]isoxazol-2(3H)-yl)pyrimidin-4-amine]	0.05 to 0.5
CCN1CCN(C2CCN(c3ccc(Nc4cc(N5OCC[C@@H]5c5ccccc5)ncn4)c(OC)c3)CC2)CC1 [Example 118, (R)—N-(4-(4-(4-ethylpiperazin-1-yl)piperidin-1-yl)-2-methoxyphenyl)-6-(3-phenylisoxazolidin-2-yl)pyrimidin-4-amine]	< 0.05
CCc1cc(Nc2cc(N3OCC[C@@H]3c3ccccc3)ncn2)ccc1N1CCC(N2CCN(C)CC2)CC1 [Example 117, (R)—N-(3-ethyl-4-(4-(4-methylpiperazin-1-yl)piperidin-1-yl)phenyl)-6-(3-phenylisoxazolidin-2-yl)pyrimidin-4-amine]	< 0.05
CC(C)[C@H]1CCON1c1cc(Nc2ccc(N3CCN(C)CC3)cc2)ncn1 [Example 235, (R)-6-(3-isopropylisoxazolidin-2-yl)-N-(4-(4-methylpiperazin-1-yl)phenyl)pyrimidin-4-amine]	< 0.05
CN1OCC[C@H]1c1ccc(Nc2cc(N3OCC[C@@H]3c3cccc(F)c3F)ncn2)cc1 [Example 176, 6-((R)-3-(2,3-difluorophenyl)isoxazolidin-2-yl)-N-(4-((S)-2-methylisoxazolidin-3-yl)phenyl)pyrimidin-4-amine]	0.05 to 0.5
COc1cc2c(cc1Nc1cc(N3OCC[C@@H]3c3cc(F)cc(F)c3)ncn1)NCC21CCN(C)CC1 [Example 154, (R)—N-(6-(3-(3,5-difluorophenyl)isoxazolidin-2-yl)pyrimidin-4-yl)-5-methoxy-1′-methylspiro[indolin-3,4′-piperidin]-6-amine]	< 0.05
COc1cc(N2CCC(N3CCN(C)CC3)CC2)ccc1Nc1cc(N2OCC3(CC3)[C@H]2c2ccccc2)ncn1 [Example 234, (R)—N-(2-methoxy-4-(4-(4-methylpiperazin-1-yl)piperidin-1-yl)phenyl)-6-(7-phenyl-5-oxa-6-azaspiro[2.4]heptan-6-yl)pyrimidin-4-amine]	0.05 to 0.5
COc1cc(NC2CCN(C)CC2)ccc1Nc1cc(N2OCC[C@@H]2c2ccccc2)ncn1 [Example 113, (R)-2-methoxy-N4-(1-methylpiperidin-4-yl)-N1-(6-(3-phenylisoxazolidin-2-yl)pyrimidin-4-yl)benzene-1,4-diamine]	< 0.05
COc1cc(N2CCC(N(C)C)CC2)ccc1Nc1cc(N2OCC[C@@H]2c2cc(F)cc(F)c2)ncn1 [Example 22, (R)-6-(3-(3,5-difluorophenyl)isoxazolidin-2-yl)-N-(4-(4-(dimethylamino)piperidin-1-yl)-2-methoxyphenyl)pyrimidin-4-amine]	< 0.05
O=C1CCCN1c1ccc(Nc2cc(N3OCC[C@@H]3c3ccccc3)ncn2)cc1 [Example 75, (R)-1-(4-((6-(3-phenylisoxazolidin-2-yl)pyrimidin-4-yl)amino)phenyl)pyrrolidin-2-one]	< 0.05
COc1cc(N2CCC(N3CCN(C)CC3)CC2)ccc1Nc1cc(N2OCC[C@@H]2c2ccccc2)nc(N)n1 [Example 111, (R)—N4-(2-methoxy-4-(4-(4-methylpiperazin-1-yl)piperidin-1-yl)phenyl)-6-(3-phenylisoxazolidin-2-yl)pyrimidin-2,4-diamine]	0.05 to 0.5
COc1cc(N2CCC(N3CCN(C)CC3)CC2)ccc1Nc1cc(N2OCC[C@@H]2c2ccc(F)c(Cl)c2)ncn1 [Example 31, (R)-6-(3-(3-chloro-4-fluorophenyl)isoxazolidin-2-yl)-N-(2-methoxy-4-(4-(4-methylpiperazin-1-yl)piperidin-1-yl)phenyl)pyrimidin-4-amine]	< 0.05
CN1CCN(c2ccc(Nc3cc(N4OCC[C@H]4c4ccccc4)ncn3)cc2)CC1 [Example 2, (S)—N-(4-(4-methylpiperazin-1-yl)phenyl)-6-(3-phenylisoxazolidin-2-yl)pyrimidin-4-amine]	0.05 to 0.5
CN1CCC2(CC1)CCN(c1ccc(Nc3cc(N4OCC[C@@H]4c4ccccc4)ncn3)cc1)CC2 [Example 135, (R)—N-(4-(9-methyl-3,9-diazaspiro[5.5]undecan-3-yl)phenyl)-6-(3-phenylisoxazolidin-2-yl)pyrimidin-4-amine]	< 0.05
COc1cc2c(cc1Nc1cc(N3OCC[C@@H]3c3ccccc3)ncn1)OC[C@H]1C[C@@H](N3CCN(C4CC4)CC3)CCN21 [Example 49, (6aR,8S)-8-(4-cyclopropylpiperazin-1-yl)-2-methoxy-N-(6-((R)-3-phenylisoxazolidin-2-yl)pyrimidin-4-yl)-6,6a,7,8,9,10-hexahydrobenzo[b]pyrido[1,2-d] [1,4]oxazin-3-amine]	< 0.05
CN1Cc2cc(Nc3cc(N4OCC[C@@H]4c4ccccc4)ncn3)ccc2C1=O [Example 76, (R)-2-methyl-5-((6-(3-phenylisoxazolidin-2-yl)pyrimidin-4-yl)amino)isoindolin-1-one]	< 0.05
COc1cc(N2CCSCC2)ccc1Nc1cc(N2OCC[C@@H]2c2ccccc2)ncn1 [Example 66, (R)—N-(2-methoxy-4-thiomorpholinophenyl)-6-(3-phenylisoxazolidin-2-yl)pyrimidin-4-amine]	< 0.05

Now from value to compound:

GI50 [µM]	SMILES
< 0.05	CN1CCN(c2cc(OCC(F)(F)F)c(Nc3cc(N4OCC[C@@H]4c4ccccc4)ncn3)cc2-c2cnn(C)c2)CC1 [Example 166, (R)—N-(5-(1-methyl-1H-pyrazol-4-yl)-4-(4-methylpiperazin-1-yl)-2-(2,2,2-trifluoroethoxy)phenyl)-6-(3-phenylisoxazolidin-2-yl)pyrimidin-4-amine]
< 0.05	COc1cc(N2CCC3(CC2)CCN(C(C)(C)CF)CC3)c(-c2cnn(C)c2)cc1Nc1cc(N2OCC[C@@H]2c2cccc(F)c2F)ncn1 [Example 195, (R)-6-(3-(2,3-difluorophenyl)isoxazolidin-2-yl)-N-(4-(9-(1-fluoro-2-methylpropan-2-yl)-3,9-diazaspiro[5.5]undecan-3-yl)-2-methoxy-5-(1-methyl-1H-pyrazol-4-yl)phenyl)pyrimidin-4-amine]
< 0.05	COc1cc(N2CCC3(CC2)CC(N(C)C)C3)c(C)cc1Nc1cc(N2OCC[C@@H]2c2ccccc2)ncn1 [Example 88, (R)-7-(5-methoxy-2-methyl-4-((6-(3-phenylisoxazolidin-2-yl)pyrimidin-4-yl)amino)phenyl)-N,N-dimethyl-7-azaspiro[3.5]nonan-2-amine]
< 0.05	COc1cc(N2CCC(N3CCN(C)CC3)CC2)ccc1Nc1cc(N2OCC[C@@H]2c2cccc(F)c2F)ncn1 [Example 32, (R)-6-(3-(2,3-difluorophenyl)isoxazolidin-2-yl)-N-(2-methoxy-4-(4-(4-methylpiperazin-1-yl)piperidin-1-yl)phenyl)pyrimidin-4-amine]
0.05 to 0.5	COc1cc(N2CCC(N3CCN(C)CC3)CC2)ccc1Nc1cc(N2OCC[C@@H]2c2cncc(F)c2)ncn1 [Example 169, (R)-6-(3-(5-fluoropyridin-3-yl)isoxazolidin-2-yl)-N-(2-methoxy-4-(4-(4-methylpiperazin-1-yl)piperidin-1-yl)phenyl)pyrimidin-4-amine]
< 0.05	COc1cc(N2CCN(C)CC2)c(-c2cnn(C)c2)nc1Nc1cc(N2OCC[C@@H]2c2cccc(F)c2F)ncn1 [Example 201, (R)-6-(3-(2,3-difluorophenyl)isoxazolidin-2-yl)-N-(3-methoxy-6-(1-methyl-1H-pyrazol-4-yl)-5-(4-methylpiperazin-1-yl)pyridin-2-yl)pyrimidin-4-amine]
< 0.05	COc1nc(N2CCC(N3CCN(C)CC3)CC2)c(-c2cnn(C)c2)cc1Nc1cc(N2OCC[C@@H]2c2ccccc2)ncn1 [Example 147, (R)—N-(2-methoxy-5-(1-methyl-1H-pyrazol-4-yl)-6-(4-(4-methylpiperazin-1-yl)piperidin-1-yl)pyridin-3-yl)-6-(3-phenylisoxazolidin-2-yl)pyrimidin-4-amine]
< 0.05	CCc1cc(Nc2cc(N3OCC[C@@H]3c3ccc(F)cc3F)ncn2)c(OC)cc1N1CCC(N2CCN(C)CC2)CC1 [Example 93, (R)-6-(3-(2,4-difluorophenyl)isoxazolidin-2-yl)-N-(5-ethyl-2-methoxy-4-(4-(4-methylpiperazin-1-yl)piperidin-1-yl)phenyl)pyrimidin-4-amine]
< 0.05	COc1cc(Nc2cc(N3OCC[C@@H]3c3ccc(Cl)cc3F)ncn2)ccc1N1CCC(N2CCN(C)CC2)CC1 [Example 105, (R)-6-(3-(4-chloro-2-fluorophenyl)isoxazolidin-2-yl)-N-(3-methoxy-4-(4-(4-methylpiperazin-1-yl)piperidin-1-yl)phenyl)pyrimidin-4-amine]
0.05 to 0.5	COc1cc(N2CCC(N3CCN(C)CC3)CC2)ccc1Nc1cc(N2OCC[C@@H]2c2cccc3ccccc23)ncn1 [Example 36, (R)—N-(2-methoxy-4-(4-(4-methylpiperazin-1-yl)piperidin-1-yl)phenyl)-6-(3-(naphthalen-1-yl)isoxazolidin-2-yl)pyrimidin-4-amine]
< 0.05	COc1nc(N2CCN(C)CC2)c(-c2cnn(C)c2)cc1Nc1cc(N2OCC[C@@H]2c2cccc(F)c2F)ncn1 [Example 202, (R)-6-(3-(2,3-difluorophenyl)isoxazolidin-2-yl)-N-(2-methoxy-5-(1-methyl-1H-pyrazol-4-yl)-6-(4-methylpiperazin-1-yl)pyridin-3-yl)pyrimidin-4-amine]
